The values that follow come from US20200253888A1, “USE OF BIOMARKERS ASSOCIATED WITH LINE-1” (THE ARIZONA BOARD OF REGENTS ON BEHALF OF THE UNIVERSITY OF …, priority 2016, published 2020).

In data set [1] the test system is L1 mRNAs (ORF-1 and ORF-2). Nature of the data set: TGF-β1-induced L1 mRNA expression in HepG2 cells (qRT-PCR). The format is cell-based, human. Here is the method: FIG. 1 is experimental results showing TGF-β1 induces the L1 mRNA expression in HepG2 cells. HepG2 were stimulated for different times by adding serum-free media with or without (untreated) 10 ng/ml TGF-β1. Total RNA was isolated, and 1 μg of RNA was subjected to cDNA synthesis. Samples were analyzed via RT-PCR using specific primers for human L1 (ORF-1 and ORF-2) and GAPDH. Expression relative to untreated cells.
(§1) Cell culture and treatments: HepG2 hepatocellular carcinoma cell line was purchased from the American Type Culture Collection (ATCC). Cells were grown in RPMI medium supplemented with 10% fetal bovine serum (FBS, Thermo Fisher Scientific, Grand Island, N.Y.) supplemented with 62.5 μg/mL penicillin and 100 μg/mL streptomycin (Thermo Fisher Scientific) in a humidified incubator at 37° C. with 5% CO2. HepG2 cells were pleated on day before treatment. Cells were between 40-50% confluent at the treatment time. […] All protein concentrations were determined using the bicinchoninic acid assay (Thermo Fisher Scientific).
RT-PCR: Total RNA was isolated from cells using the RNeasy Plus Kit (Qiagen) and 2 μg RNA was digested with TurboDNase-I (Thermo Fisher Scientific). […] The fold changes were determined by comparing the ACT value of each product normalized to GAPDH as an internal control. […]
In general terms: In qPCR the cycle at which signal appears reflects the starting amount.

Data set [2] deals with L1 proteins (ORF1p and ORF2p). The data set is described as follows: TGF-β1-mediated L1 expression in BEAS-2B lung cells with or without juglone (immunoblotting). The format is cell-based. To be noted: BEAS-2B cells, 10 ng/ml TGF-β1, immunoblotting. As for the experimental part: In the experiments, non-malignant BEAS-2B lung cells were untreated or treated with 10 ng/ml TGF-β1 and co-treated with 1 μM juglone or ethanol and whole lyses were analyzed by immunoblotting for L1 proteins (ORF1p and ORF2p), vimentin, DNMT1 and GAPDH (loading control).
In general terms: Immunoblotting shows a protein as a band on a membrane.

In another data set the test system is L1. To be noted: HeLa, HMEM, vSMC and mK4 cell lines; previously shown (ref. 33); cited from earlier work.
The test system of data set [3] is phospho-Smad2, E-Cadherin, N-Cadherin, vimentin. Nature of the data set: Activation of the TGF-β1 signaling pathway by B[a]P in HepG2 cells (immunoblotting). The format is cell-based, human. Particulars: data not shown. Here is the method: FIG. 4 is experimental results showing B[a]P induces the activation of the TGF-β1 signaling pathway in HepG2 cells. Cells were stimulated for different periods of times by replacing cell media for supplemented fresh media containing 1.5 μM B[a]P or an equivalent DMSO concentration (0.5%). Whole cell lysates were analyzed by immunoblotting for phospho-Smad2, total Smad2, E-Cadherin, N-Cadherin, and GAPDH (loading control).
as §1
Immunoblotting: Total cell lysates were resolved by SDS-Tris PAGE and then electrotransferred onto polyvinylidine fluoride membranes (Thermo Fisher Scientific) in Tris-glycine buffer containing 20% methanol. Proteins were detected by immunoblotting. […]

The subject of another data set is AhR. The data set is described as follows: AhR knockdown by siRNA in HepG2 cells (immunoblot). The format is cell-based, human. To be noted: HepG2, siRNA transfection. Here is the method: FIG. 3 is experimental results showing B[a]P induces the TG-β1 mRNA expression through of its receptor AhR in HepG2 cells. A) Cell were treated with 1.5 μM B[a]P or an equivalent DMSO concentration (0.5%) for different periods of times. B) Cells were transfected without siRNA (mock), with AhR target-specific siRNAs, or with a control siRNA (scramble), then treated with 1.5 μM B[a]P or DMSO for 48 h. Total RNA was isolated, and 1 μg of RNA was subjected to cDNA synthesis. Samples were analyzed via RT-PCR using human specific primers for TGF-μ1 and GAPDH. C) Some transfected cells were lysed and the whole cell lysates was analyzed by immunoblotting for AhR or GAPDH antibodies (loading control) to confirm target knockdown.
Immunoblotting: Total cell lysates were resolved by SDS-Tris PAGE and then electrotransferred onto polyvinylidine fluoride membranes (Thermo Fisher Scientific) in Tris-glycine buffer containing 20% methanol. Proteins were detected by immunoblotting. Where indicated, membranes were stripped of bound antibodies using 62.5 mmol/L Tris-HCl (pH 6.7), 100 mmol/L 2-mercaptoethanol, and 2% SDS for 30 minutes at 60° C. and then reprobed as described in figure legends.
(§2) RNA interference: Small interfering RNA (siRNA) duplexes sequences were chemically synthesized and annealed by Thermo Fisher Scientific. […]

The next data set has as its system L1 mRNA (ORF1 and ORF2). Nature of the data set: B[a]P-induced L1 mRNA expression after siRNA transfection in HepG2 cells (qRT-PCR). The data set is classed as cell-based, human. As for the experimental part: FIG. 5 is experimental results showing B[a]P-mediated L1 mRNA expression requires TGFR1, Smad2 and smad3 in HepG2 cells. Cells were transfected without siRNA (mock), with target-specific siRNAs for Smad2, Smad3, TGFBR1, or with a control siRNA (scramble), then treated with 1.5 μM B[a]P or DMSO for 48 h. Total RNA was isolated, and 1 μg of RNA was subjected to cDNA synthesis. Samples were analyzed via RT-PCR using human specific primers for L1 (ORF1 and ORF2) and GAPDH. C) Some transfected cells were lysed and the whole cell lysates was analyzed by immunoblotting for TGFBR1, Smad2/3 or GAPDH antibodies (loading control) to confirm target knockdown.
RT-PCR: Total RNA was isolated from cells using the RNeasy Plus Kit (Qiagen) and 2 μg RNA was digested with TurboDNase-I (Thermo Fisher Scientific). A total DNAse digested RNA (1 μg) was employed for cDNA synthesis using high-capacity cDNA reverse transcription Kit (Thermo Fisher Scientific). The resulting cDNAs (50 ng) were used as templates for qRT-PCR to analyze the mRNA expression using Power SYBR® Green PCR Master Mix and primers for L1-ORF-1, L1-ORF-2, TGF-β1 and GAPDH. The fold changes were determined by comparing the ACT value of each product normalized to GAPDH as an internal control.
as §2

Take “TGF-β1: Recombinant human TGF-β1 purchased from R&D Systems”: in data set [1] (HepG2, 10 ng/ml TGF-β1, time course 4 h-24 h), the “time of maximal peak induction of L1 mRNAs” value is recorded as 8 h. Besides, the “expression levels of L-1 mRNAs (ORF-1 and ORF-2)” value in data set [1] (HepG2, 10 ng/ml TGF-β1 in serum-free media, after 8 h to 24 h treatment, relative to untreated cells) was “induced an evident increase”. Moreover, the “expression of L1” value in data set [2] is reported as “induces the expression of L1”.
For the compound `c1ccc2c(c1)cc1ccc3cccc4ccc2c1c34` [B[a]P, Benzo[a]pyrene], the “transcriptional expression of L1” value in the data set on L1 was “reactivates transcriptional expression of L1”. Moreover, the expression of vimentin entry in data set [3] is recorded as “not induced”.
On to “AhR siRNA: siRNA duplex for AhR (ID#s1200), SEQ ID NO: 9 and 10 (chain 1 CGGAUGAAAUCCUGACGUATT; chain 2 UACGUCAGGAUUUCAUCAGTT; chemistry not given here)”, for which, in the data set with AhR, the “reduction in AhR levels compared with controls” value is on record as more than 90%.
As to “Smad3 siRNA: siRNA duplex for Smad3 (ID#107877), SEQ ID NO: 15 and 16 (chain 1 GGCCCAGUGCAUAUGCAAUTT; chain 2 AUUGCAUAUGCACUGGGCCTC; chemistry not given here)”, the “baseline L1 mRNA expression after knockdown” value in the data set on L1 mRNA (ORF1 and ORF2) is on record as “slight reduction”.
Still for that read-out and setting: to “Smad2 siRNA: siRNA duplex for Smad2 (ID#115715), SEQ ID NO: 13 and 14 (chain 1 GCUUCUCUGAACAAACCAGTT; chain 2 CUGGUUUGUUCAGAGAAGCTG; chemistry not given here)” belongs “slight reduction”.
